Columns and labels:
[1] = target: T1, UGT2B17 (Homo sapiens, UniProt O75795); type: biochemical; details: human, microsomes from UGT2B17-overexpressing HEK293 cells, pH 7.4, probe 3HC (30 mM), 3HC-Gluc formation
T1 sequence (O75795 24-530): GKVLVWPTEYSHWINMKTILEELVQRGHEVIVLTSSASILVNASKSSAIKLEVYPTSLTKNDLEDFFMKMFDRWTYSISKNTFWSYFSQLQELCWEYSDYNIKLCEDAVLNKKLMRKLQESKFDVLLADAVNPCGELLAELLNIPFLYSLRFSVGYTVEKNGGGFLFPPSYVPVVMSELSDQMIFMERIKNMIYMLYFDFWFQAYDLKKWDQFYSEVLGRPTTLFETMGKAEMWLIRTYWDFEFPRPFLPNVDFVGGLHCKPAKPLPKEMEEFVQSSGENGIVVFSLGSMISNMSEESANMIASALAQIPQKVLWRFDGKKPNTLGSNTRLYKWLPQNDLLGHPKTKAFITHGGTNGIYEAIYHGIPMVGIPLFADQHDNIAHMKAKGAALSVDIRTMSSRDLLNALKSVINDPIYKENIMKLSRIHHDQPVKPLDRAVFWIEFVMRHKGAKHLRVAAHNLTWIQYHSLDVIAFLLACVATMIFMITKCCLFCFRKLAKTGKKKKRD

[2] = target: T2, UGT2B7 (Homo sapiens, UniProt P16662); type: biochemical; details: human, microsomes from UGT2B7-overexpressing HEK293 cells, pH 7.4, probe 3HC (30 mM), 3HC-Gluc formation
T2 sequence (P16662 24-529): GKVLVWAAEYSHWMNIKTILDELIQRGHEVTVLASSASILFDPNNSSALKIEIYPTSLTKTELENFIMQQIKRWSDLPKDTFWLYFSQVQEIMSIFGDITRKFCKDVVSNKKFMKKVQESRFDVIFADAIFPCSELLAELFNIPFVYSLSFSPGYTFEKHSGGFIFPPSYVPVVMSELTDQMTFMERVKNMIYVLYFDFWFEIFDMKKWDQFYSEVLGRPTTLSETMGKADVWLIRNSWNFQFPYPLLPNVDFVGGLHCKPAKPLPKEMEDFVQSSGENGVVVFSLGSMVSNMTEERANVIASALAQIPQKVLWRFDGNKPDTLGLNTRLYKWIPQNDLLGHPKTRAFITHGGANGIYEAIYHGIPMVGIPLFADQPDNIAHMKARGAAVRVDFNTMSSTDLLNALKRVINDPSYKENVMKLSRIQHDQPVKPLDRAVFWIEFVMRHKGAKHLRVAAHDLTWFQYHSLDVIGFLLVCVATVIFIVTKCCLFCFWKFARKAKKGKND

[3] = target: T3, CYP2B6 (Homo sapiens, UniProt P20813); type: biochemical; details: human, microsomes from CYP2B6-overexpressing HEK293 cells, pH 7.4, probe nicotine (cotinine formation)
T3 sequence (P20813 1-491): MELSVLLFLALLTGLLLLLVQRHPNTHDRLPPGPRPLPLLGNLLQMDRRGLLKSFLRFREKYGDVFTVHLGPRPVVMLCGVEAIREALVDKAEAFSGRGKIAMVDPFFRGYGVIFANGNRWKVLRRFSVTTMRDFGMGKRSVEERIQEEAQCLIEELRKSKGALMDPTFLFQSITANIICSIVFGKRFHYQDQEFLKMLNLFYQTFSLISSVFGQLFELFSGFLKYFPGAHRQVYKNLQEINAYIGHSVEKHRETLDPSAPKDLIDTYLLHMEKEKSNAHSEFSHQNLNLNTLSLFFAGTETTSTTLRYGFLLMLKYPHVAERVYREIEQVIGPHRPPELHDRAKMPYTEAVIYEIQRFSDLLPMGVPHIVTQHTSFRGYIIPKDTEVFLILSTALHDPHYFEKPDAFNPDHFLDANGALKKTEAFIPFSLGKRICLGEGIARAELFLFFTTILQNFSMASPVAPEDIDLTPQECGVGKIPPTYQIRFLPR

[4] = target: T4, CYP2A6 (Homo sapiens, UniProt P11509); type: biochemical; details: 10 μM inhibitor; nicotine substrate; CYP2A6 microsomes
T4 sequence (P11509 1-494): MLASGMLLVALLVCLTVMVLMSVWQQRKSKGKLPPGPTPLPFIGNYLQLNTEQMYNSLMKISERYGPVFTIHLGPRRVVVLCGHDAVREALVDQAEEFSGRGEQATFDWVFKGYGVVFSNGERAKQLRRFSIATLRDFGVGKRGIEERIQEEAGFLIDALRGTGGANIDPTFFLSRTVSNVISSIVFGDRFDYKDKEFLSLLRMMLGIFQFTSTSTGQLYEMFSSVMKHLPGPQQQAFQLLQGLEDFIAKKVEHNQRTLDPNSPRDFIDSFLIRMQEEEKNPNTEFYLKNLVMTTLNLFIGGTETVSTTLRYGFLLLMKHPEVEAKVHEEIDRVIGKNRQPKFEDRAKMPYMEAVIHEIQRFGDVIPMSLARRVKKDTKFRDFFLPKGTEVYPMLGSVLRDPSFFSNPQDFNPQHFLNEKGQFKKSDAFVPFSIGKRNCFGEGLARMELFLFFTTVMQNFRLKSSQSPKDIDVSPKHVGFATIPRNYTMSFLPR

[5] = target: T4, CYP2A6; type: biochemical; details: 10 μM inhibitor; nicotine substrate; CYP2A6 microsomes; vs 100% activity control
[6] = majority of tobacco users; cited from earlier work
[7] = system: CYP2A6; details: cited from earlier work

With Cc1ccc(NC(=O)c2ccc(CN3CCN(C)CC3)cc2)cc1Nc1nccc(-c2cccnc2)n1 [imatinib] the inhibition at 200 µM [1] was at most 65% and the inhibition at 200 µM [2] was at most 65%.
COC(=O)[C@H](c1ccccc1Cl)N1CCc2sccc2C1 [clopidogrel] gave an inhibition at 30 min, 50 µM [3] of 60%.
In the case of N[C@@H]1C[C@H]1c1ccccc1 (racemic) [tranylcypromine], the “inhibition of nornicotine formation” value [4] is reported as 95% and the “inhibition of cotinine formation” value [5] is reported as 70%.
For CN1CCC[C@H]1c1cccnc1 [nicotine], the “fraction of nicotine metabolized to cotinine by CYP2A6” value [6] is given as “greater than 70%”.
For C#CCN(C)[C@H](C)Cc1ccccc1 [selegiline], the Ki [7] is given as 4.6 µM.

— publication PMC9945182 (Chemical Research in Toxicology, 2023)
